The target in data set [1] is Ba/F3 cells expressing BCR-ABL T315I (Homo sapiens, UniProt P00519, T315I, cells depend on it). In words: MTT cell viability assay, Experiment 3. The class given is cell-based, murine. Conditions: Mean ± S.E.M, two independent experiments, read-out: IC50 cell viability, Ba/F3 cells T315I BCR-ABL. An excerpt: (§1) This study evaluated the effect of the pure optical isomers on human leukemia cell viability in vitro. […] Two BCR-ABL-positive human leukemia cell lines, K562 and KU812, were used in this study. Besides, Ba/F3 cell transfectants expressing native or T315I BCR-ABL, whose viability is dependent on ectopically expressed BCR-ABL, were also used in this work. Ba/F3 cells expressing BCR-ABL^T315I were used for testing the efficiency of tested compounds on point mutation BCR-ABL^T315I, which cause drug resistance to Imatinib (Gleevec). U937 and JURKAT, two BCR-ABL-negative human leukemia cell lines, were employed to test the selectivity of tested compounds.
(§2) Cells were seeded in 24-well plates, and treated with drugs at corresponding concentrations. Cell viability was measured using a MTT (3-(4,5-dimethylthiazol-2-yl)-2,5-diphenyltetrazolium bromide)-based colorimetric assay with a 96-well plate reader. IC50 values were calculated using the mean of two independent experiments.

Data set [2] addresses Ba/F3 cells expressing native BCR-ABL (Homo sapiens, UniProt P00519). Put plainly: MTT cell viability assay, Experiment 3. The conditions noted are these: Mean ± S.E.M, two independent experiments, read-out: IC50 cell viability, Ba/F3 cells Native BCR-ABL. The data set is classed as cell-based, murine.
Excerpt: as §1, §2

In another data set the test system is K562. In words: MTT cell viability assay, Experiment 3. Conditions: Homo sapiens, K562; MTT, Mean ± S.E.M, two independent experiments; read-out: IC50 cell viability, CML leukemia cells K562. The data set is classed as cell-based.
Excerpt: (§3) This study evaluated the effect of the pure optical isomers on human leukemia cell viability in vitro. Ponatinib was used as the positive control. Two BCR-ABL-positive human leukemia cell lines, K562 and KU812, were used in this study. Besides, Ba/F3 cell transfectants expressing native or T315I BCR-ABL, whose viability is dependent on ectopically expressed BCR-ABL, were also used in this work. Ba/F3 cells expressing BCR-ABL^T315I were used for testing the efficiency of tested compounds on point mutation BCR-ABL^T315I, which cause drug resistance to Imatinib (Gleevec). U937 and JURKAT, two BCR-ABL-negative human leukemia cell lines, were employed to test the selectivity of tested compounds.
as §2

The next data set deals with KU812. In words: MTT cell viability assay, Experiment 3. The data set is classed as cell-based. The conditions noted are these: Homo sapiens, KU812; MTT, Mean ± S.E.M, two independent experiments; read-out: IC50 cell viability, CML leukemia cells KU812.
Excerpt: as §3, §2

In another data set the test system is U937. In words: MTT cell viability assay, Experiment 3. The data set is classed as cell-based. Conditions: Homo sapiens, U-937; MTT, Mean ± S.E.M, two independent experiments; read-out: IC50 cell viability, Non-CML leukemia cells U937.
Excerpt: as §3, §2

The test system of another data set is JURKAT. In words: MTT cell viability assay, Experiment 3. The class given is cell-based. Conditions: Homo sapiens, MTT, Mean ± S.E.M, two independent experiments, read-out: IC50 cell viability, Non-CML leukemia cells JURKAT.
Excerpt: as §3, §2

Data set [3] has as its system K562 cells. Put plainly: Cell death assay, Experiment 2 (IC50, live cells counted by trypan blue). Conditions: Homo sapiens, 48 h. The class given is cell-based. Here is the method:
K562 cells (2×10^5 cells/ml) were seeded in 24-well cell culture plate and treated with DMSO or agents. After treatment in the presence of DMSO or agents for 48 h, cells were collected by centrifuging at 500 g for 5 minutes, and then cells were resuspended in appropriate volume of PBS. 10 uL of cell suspension was mixed with 10 uL of trypan blue solution and live cells were counted by TC10 (Bio-Rad, Richmond, Calif.).

Data set [4] relates to K562 cells. Put plainly: Cell death assay, Experiment 1 (live cells counted by trypan blue). The class given is cell-based. Conditions: Homo sapiens, 100 nM, 48 hours, read-out: % live cells (vs control).

Each structure is given as a SMILES string. Bounds are passed on as bounds.

`CN1CCN(C2CC(F)(F)c3cc(NC(=O)c4ccc(Cl)c(C#Cc5cnc6cccnn56)c4)ccc32)CC1` (racemic) [Compound 38, N-(1,1-difluoro-2,3-dihydro-3-(4-methylpiperazin-1-yl)-1H-indan-6-yl)-3-(2-(imidazo[1,2-b]pyridazin-3-yl)ethynyl)-4-chlorobenzamide] gave a melting point of 140 to 142 °C. Also, the GI50 in [1] turned out to be 10.1 ± 0.7 nM. For the same compound, in data set [2], the GI50 was determined as 4.9 ± 2.1 nM. The IC50 in the data set with K562 was 0.8 ± 0.1 nM. Besides, the IC50 in the data set on KU812 was 0.4 ± 0.1 nM. In addition, the IC50 with U937 is over 1000 nM. In the data set on JURKAT, the IC50 was over 1000 nM.

Take `Cc1ccc(C(=O)Nc2ccc3c(c2)C(F)(F)C[C@H]3N2CCN(C)CC2)cc1C#Cc1cnc(NC2CC2)nc1` [37-(R), (R)-3-(2-(2-(Cyclopropylamino)pyrimidin-5-yl)ethynyl)-N-(1,1-difluoro-2,3-dihydro-3-(4-methylpiperazin-1-yl)-1H-indan-6-yl)-4-methylbenzamide]: the GI50 in [1] is over 100 nM; in [2], 62.5 ± 6.9 nM. Also, the 50% inhibitory concentration (IC50) in the data set with K562 was 10.4 ± 1.5 nM; in the data set on KU812 it was 5.2 ± 0.2 nM; in the data set on U937, 465 ± 9.7 nM; in the data set on JURKAT, 400 ± 64.9 nM.

The compound `Cc1ccc(C(=O)Nc2ccc(CN3CCN(C)CC3)c(C(F)(F)F)c2)cc1C#Cc1ccc(NC2CC2)nn1` [Compound 12, 3-(2-(6-(Cyclopropylamino)pyridazin-3-yl)ethynyl)-4-methyl-N-(4-((4-methylpiperazin-1-yl)methyl)-3-(trifluoromethyl)phenyl)benzamide] yielded a melting point of 68 to 69 °C. This compound showed an IC50 with K562 cells [3] of 4 nM. Further, the viability at 0.1 µM with K562 cells [4] was found to be 10.1%.

In the case of `Cc1cn(-c2cc(NC(=O)c3ccc(C)c(C#Cc4ccc(NC5CC5)nn4)c3)cc(C(F)(F)F)c2)cn1` [Compound 23, 3-(2-(6-(Cyclopropylamino)pyridazin-3-yl)ethynyl)-4-methyl-N-(3-(4-methyl-1H-imidazol-1-yl)-5-(trifluoromethyl)phenyl)benzamide], the melting point lay in the range of 226 to 228 °C. In the data set on K562 cells [3], this compound returned an IC50 of 16 nM. Moreover, the viability at 0.1 µM in the data set on K562 cells [4] was determined as 8.6%.

Turning to `CN1CCN([C@H]2CC(F)(F)c3cc(NC(=O)c4ccc(F)c(C#Cc5cnc6cccnn56)c4)ccc32)CC1` (single isomer, unassigned) [39-(S)], the GI50 in [1] came to 6.5 ± 1.2 nM; in [2], 2.3 ± 0.5 nM. Moreover, the IC50 in the data set on K562 was 0.3 ± 0.2 nM; with KU812, 0.2 ± 0.1 nM; with U937 it was over 1000 nM; in the data set on JURKAT it was over 1000 nM.

Turning to `Cc1ccc(-c2nc3ccc(CN4CCN(C)CC4)cc3[nH]2)cc1C#Cc1cnc2cccnn12` [Compound 3, 3-(2-(2-Methyl-5-(6-((4-methylpiperazin-1-yl)methyl)-1H-benzo[d]imidazol-2-yl)phenyl)ethynyl)imidazo[1,2-b]pyridazine], the melting point was 114 to 115 °C. Further, the IC50 with K562 cells [3] is 3 nM. Also, the viability at 0.1 µM in the data set on K562 cells [4] was determined as 11.3%.

Regarding `Cc1cn(-c2ccc(NC(=O)c3ccc(C)c(C#Cc4cnc5cccnn45)c3)cc2C(F)(F)F)cn1` [Compound 30, 3-(2-(Imidazo[1,2-b]pyridazin-3-yl)ethynyl)-4-methyl-N-(4-(4-methyl-1H-imidazol-1-yl)-3-(trifluoromethyl)-phenyl)benzamide], the melting point fell in the range of 124 to 126 °C. Further, the IC50 in the data set with K562 cells [3] was 3.6 nM. In addition, the viability at 0.1 µM in the data set on K562 cells [4] came to 12.6%.

In the case of `Cc1ccc(C(=O)Nc2ccc3c(c2)C(F)(F)C[C@@H]3N2CCN(C)CC2)cc1C#Cc1cnc(NC2CC2)nc1` [37-(S), (S)-3-(2-(2-(Cyclopropylamino)pyrimidin-5-yl)ethynyl)-N-(1,1-difluoro-2,3-dihydro-3-(4-methylpiperazin-1-yl)-1H-indan-6-yl)-4-methylbenzamide], the GI50 in [1] stood at 12.4 ± 0.4 nM; in data set [2], 3.5 ± 0.9 nM. In addition, the IC50 in the data set on K562 worked out at 0.6 ± 0.1 nM; in the data set on KU812, 0.2 ± 0.1 nM; with U937, 165 ± 15 nM; in the data set with JURKAT, 280 ± 20 nM.

The compound `CN1CCN(C2CC(F)(F)c3cc(NC(=O)c4ccc(F)c(C#Cc5cnc6cccnn56)c4)ccc32)CC1` (racemic) [Compound 39, N-(1,1-difluoro-2,3-dihydro-3-(4-methylpiperazin-1-yl)-1H-indan-6-yl)-3-(2-(imidazo[1,2-b]pyridazin-3-yl)ethynyl)-4-fluorobenzamide] showed a melting point of 118 to 121 °C. The GI50 in [1] worked out at 13 ± 0.9 nM. Besides, in data set [2], the GI50 worked out at 3.6 ± 0.7 nM. In the data set on K562, the 50% inhibitory concentration (IC50) worked out at 0.8 ± 0.2 nM. In addition, in the data set with KU812, the IC50 came to 0.5 ± 0.3 nM. In the data set on U937, the IC50 amounted to 810 ± 39.2 nM. Besides, in the data set with JURKAT, the IC50 was over 1000 nM.

In the case of `Cc1ccc(C(=O)Nc2ccc(CN3CCN(C)CC3)c(C(F)(F)F)c2)cc1C#Cc1ccc(NC(C)C)nn1` [Compound 14, 3-(2-(6-(Isopropylamino)pyridazin-3-yl)ethynyl)-4-methyl-N-(4-((4-methylpiperazin-1-yl)methyl)-3-(trifluoromethyl)phenyl)benzamide], the melting point lay within 67 to 68 °C. Besides, the viability at 0.1 µM in the data set on K562 cells [4] was 8.37%.

For the compound `Cc1ccc(C(=O)Nc2ccc3c(c2)C(F)(F)C[C@H]3N2CCN(C)CC2)cc1C#Cc1cnc2cccnn12` [36-(R), (R)—N-(1,1-difluoro-2,3-dihydro-3-(4-methylpiperazin-1-yl)-1H-indan-6-yl)-3-(2-(imidazo[1,2-b]pyridazin-3-yl)ethynyl)-4-methylbenzamide], the results for the GI50 in [1] and in [2] were over 100 nM and 31.2 ± 3.8 nM, respectively. Further, the IC50 is 3.6 ± 0.1 nM in the data set with K562, 2.7 ± 0.1 nM with KU812, over 1000 nM in the data set on U937 and over 1000 nM with JURKAT.

The compound `Cc1ccc(C(=O)Nc2ccc(CN3CCN(C)CC3)c(C(F)(F)F)c2)cc1C#Cc1ccc(NC2CCC2)nn1` [Compound 13, 3-(2-(6-(Cyclobutylamino)pyridazin-3-yl)ethynyl)-4-methyl-N-(4-((4-methylpiperazin-1-yl)methyl)-3-(trifluoromethyl)phenyl)benzamide] displayed a melting point of 120 to 121 °C. The IC50 in the data set with K562 cells [3] was determined as 11 nM. Also, the viability at 0.1 µM with K562 cells [4] was 8.9%.

`CN1CCN([C@@H]2CC(F)(F)c3cc(NC(=O)c4ccc(Cl)c(C#Cc5cnc6cccnn56)c4)ccc32)CC1` (single isomer, unassigned) [38-(R)]: the values for the GI50 in data set [1] and in data set [2] were over 100 nM and 78.2 ± 2.3 nM, respectively. The IC50 was 24.9 ± 9.9 nM in the data set with K562, 11.9 ± 0.3 nM in the data set on KU812, over 1000 nM with U937 and over 1000 nM in the data set on JURKAT.

For `Cc1cn(-c2cc(NC(=O)c3ccc(C)c(C#Cc4ccc(NC5CCC5)nn4)c3)cc(C(F)(F)F)c2)cn1` [Compound 24, 3-(2-(6-(Cyclobutylamino)pyridazin-3-yl)ethynyl)-4-methyl-N-(3-(4-methyl-1H-imidazol-1-yl)-5-(trifluoromethyl)phenyl)benzamide], the melting point lay in the range of 223 to 225 °C. Moreover, in the data set on K562 cells [4], the viability at 0.1 µM was determined as 16.4%.

`CC(C)Nc1ccc(C#Cc2cc(C(=O)Nc3ccc(CN4CCN(C)CC4)c(C(F)(F)F)c3)ccc2Cl)nn1` [Compound 17] had a melting point of 133 to 134 °C. For the same compound, the viability at 0.1 µM in the data set on K562 cells [4] was found to be 18.3%.

Regarding `Cc1ccc(-c2nc3ccc(CN4CCN(C)CC4)cc3[nH]2)cc1C#Cc1cnc(NC2CC2)nc1` [Compound 5, N-Cyclopropyl-5-(2-(2-methyl-5-(6-((4-methylpiperazin-1-yl)methyl)-1H-benzo[d]imidazol-2-yl)phenyl)ethynyl)pyrimidin-2-amine], the melting point lay within 136 to 137 °C. Moreover, the viability at 0.1 µM in the data set with K562 cells [4] came to 10.8%.

With `CN1CCN([C@@H]2CC(F)(F)c3cc(NC(=O)c4ccc(F)c(C#Cc5cnc6cccnn56)c4)ccc32)CC1` (single isomer, unassigned) [39-(R)], the GI50 in data set [1] is over 100 nM; in data set [2], 47.6 ± 4.5 nM. In addition, the IC50 is 6.4 ± 1.3 nM with K562, 3.6 ± 0.8 nM in the data set with KU812, over 1000 nM in the data set on U937 and over 1000 nM with JURKAT.

These data come from patent US9174996B2, “Protein kinase inhibitors” (Astar Biotech LLC, priority 2012, dated 2015).
